In patent US4390547A, “2,2-Dimethyl-3-(substituted ethyl)cyclopropane carboxylate pesticidal compositions and methods” (priority 1981, dated 1983):
Like-named read-outs stand apart in the source and are kept apart here.

Test: Light stability test (Test Example 3)
Assay type: physicochemical
Conditions: glass plate, uv light
Description: Into 2.0 ml of acetone were dissolved 80 mg of each test compound. A 5 μl portion of the solution was taken and spread on a glass plate (Micro Standard Cover Glass, 18 m/m No. 1, 200 pcs, Matsunami Glass Ind., Ltd.) and the acetone was evaporated. The specimen was exposed to ultraviolet light from a fluorescent lamp (Tokyo Shibaura Electric Co., Ltd., FL20BL, glow-type, 100 V, 24.5 W, wavelength=3600 A) which was fixed just above the specimen at a distance of 11 cm at a temperature of 31°-35° C. for a predetermined exposure time. The test liquid was washed away with 1.0 ml of methanol containing 0.04% of dioctyl phthalate as an internal reference and high-speed liquid chromatography was carried out on the washings to determine the residual amount of the test compound.

[1] = exposure time 3.5 hours, ultraviolet light 3600 A, 31°-35° C., [Mixture] = cis/trans 50/50, read-out: Residue (%)
[2] = exposure time 3 days, ultraviolet light 3600 A, 31°-35° C., [Mixture] = cis/trans 50/50, read-out: Residue (%)

| remaining at 3.5 h | remaining at 72 h | remaining at 120 h | Compound | remaining at 3.5 h [1] | remaining at 72 h [2] | remaining at 120 h (exposure time 5 days, ultraviolet light 3600 A, 31°-35° C., [Mixture] = cis/trans 50/50, read-out: Residue (%)) |
| --- | --- | --- | --- | --- | --- | --- |
| 16% | 0% | – | CC1(C)C(CC(Cl)(Cl)Cl)C1C(=O)OCN1C(=O)C2=C(CCCC2)C1=O (centres unmarked) [(37) [Mixture], 3,4,5,6-Tetrahydrophthalimidomethyl 2,2-dimethyl-3-(2,2,2-trichloroethyl)cyclopropanecarboxylate] | – | – | – |
| 100% | 71% | 65% | C#CC(OC(=O)C1C(CC(Cl)(Cl)Cl)C1(C)C)c1cccc(Oc2ccccc2)c1 (stereo not drawn) [(11) [Mixture], 3-Phenoxy-α-ethynylbenzyl 2,2-dimethyl-3-(2,2,2-trichloroethyl)cyclopropanecarboxylate] | – | – | – |
| 100% | 78% | 56% | C#CC(OC(=O)C1C(CC(Cl)(Cl)Cl)C1(C)C)c1cccc(Oc2ccc(Cl)cc2)c1 (stereo not drawn) [(21) [Mixture], 3-(4-Chlorophenoxy)-α-ethynylbenzyl 2,2-dimethyl-3-(2,2,2-trichloroethyl)cyclopropanecarboxylate] | – | – | – |
| 100% | 93% | 96% | CC1(C)C(CC(Cl)(Cl)Cl)C1C(=O)OC(C#N)c1cccc(Oc2ccc(Cl)cc2)c1 (stereo not drawn) [(15) [Mixture], 3-(4-Chlorophenoxy)-α-cyanobenzyl 2,2-dimethyl-3-(2,2,2-trichloroethyl)cyclopropanecarboxylate] | – | – | – |
| – | – | – | CC1(C)C(CC(Cl)(Cl)Cl)C1C(=O)OC(C#N)c1cccc(OC=C(Cl)Cl)c1 (stereo not drawn) [(34) [Mixture], 3-(2,2-dichlorovinyloxy)-α-cyanobenzyl 2,2-dimethyl-3-(2,2,2-trichloroethyl)cyclopropanecarboxylate] | 100% | 88% | 44% |
| 97% | 91% | 85% | CC1(C)[C@H](C(=O)OCc2cccc(Oc3ccccc3)c2)[C@@H]1CC(Cl)(Cl)Cl (relative stereo) [(1) [Cis-isomer], 3-Phenoxybenzyl 2,2-dimethyl-3-(2,2,2-trichloroethyl)cyclopropanecarboxylate] | – | – | – |
| – | – | – | C=CCC1=C(C)C(OC(=O)C2C(C=C(C)C)C2(C)C)CC1=O (centres unmarked) [Allethrin, allethrin, reference compound] | 14% | 0% | – |
| 100% | 84% | 75% | CC1(C)C(CC(Cl)(Cl)Cl)C1C(=O)OC(C#N)c1cccc(Oc2ccccc2)c1 (stereo not drawn) [(7) [Mixture], 3-Phenoxy-α-cyanobenzyl 2,2-dimethyl-3-(2,2,2-trichloroethyl)cyclopropanecarboxylate] | – | – | – |
| 21% | 0% | – | C=CCC1=C(C)C(OC(=O)C2C(CC(Cl)(Cl)Cl)C2(C)C)CC1=O (centres unmarked) [(38) [Mixture], Allethronyl 2,2-dimethyl-3-(2,2,2-trichloroethyl)cyclopropanecarboxylate] | – | – | – |

| Compound | remaining at 3.5 h | remaining at 72 h | remaining at 120 h | remaining at 3.5 h [1] | remaining at 72 h [2] | remaining at 120 h (exposure time 5 days, ultraviolet light 3600 A, 31°-35° C., [Mixture] = cis/trans 50/50, read-out: Residue (%)) |
| --- | --- | --- | --- | --- | --- | --- |
| CC1(C)C(CC(Cl)(Cl)Cl)C1C(=O)OCc1coc(Cc2ccccc2)c1 (centres unmarked) [(28) [Mixture], 5-Benzyl-3-furylmethyl 2,2-dimethyl-3-(2,2,2-trichloroethyl)cyclopropanecarboxylate] | 5% | 0% | – | – | – | – |
